The values below come from patent US20120149724A1, “MODULATING ENDOGENOUS BETA-ENDORPHIN LEVELS” (THE GENERAL HOSPITAL CORPORATION, priority 2009, published 2012).

“Also recorded” adds a separate entry of the source.

One experiment relates to C57BL/6 male mice. As to the kind of experiment: analgesic thresholds (von Frey and hot plate assays) over a tail radiation or mock regimen. Type of experiment: in vivo. The procedure:
Example 4 describes analgesic response changes in response to tail-only radiation exposure. To obtain the data shown in FIGS. 4A and 4B, 8-week old male mice were either exposed to a dose of 5 Gy/day gamma radiation or mock exposed for 6 weeks. Mechanical (FIG. 4A) and thermal (FIG. 4B) analgesic thresholds were measured twice per week over the course of the regimen, and for 2 weeks after the regimen. The threshold testing was performed in the morning before the radiation treatment or mock exposure. The mock exposed mice were either injected with saline 15 minutes before the testing, or with 10 mg/kg naloxone 15 minutes before the testing. The radiation treatment group was divided into 2 subgroups. The first group was given saline injections 15 minutes before the testing. The second group was given a 10 mg/kg naloxone injection 15 minutes before the testing. For all groups of mice, blood was drawn once per week for beta-endorphin measurement. Data for FIG. 4A was obtained from C57BL/6 male mice, and there were 10 mice per treatment group. Data for FIG. 4B was obtained from C57BL/6 male mice, and there were 10 mice per treatment group. An asterisk indicates p<0.05 by t-test. FIGS. 4A and 4B show both mechanical and thermal analgesic thresholds increase over the radiation regimen similarly to plasma beta-endorphin fluctuations (Figure C).
In this assay of mechanical nociceptive threshold, mice were placed on an elevated wire mesh grid, and the plantar surface of the left hind paw was poked with fibers calibrated to different pressures. Mice were each poked 10 times at each pressure at a rate of 1/second, starting with the lowest pressure and stopping at the pressure that elicits a positive response for a given mouse, thus indicating the mechanical nociceptive threshold for that mouse. A positive response was 2/10 responses of paw flinching, fluttering, or licking immediately following the poke. These experiments were performed in mice undergoing daily tail radiation or mock tail radiation as follows.
Prior to the start of the tail radiation regimen, mice were habituated over one week by spending 1 hour/day in individual wire mesh cages on the elevated wire mesh grid. In addition, prior to each measurement, mice spent 30 minutes on the wire mesh grid to habituate before measurements were taken. Two measurements of baseline thresholds were taken on two different days prior to the start of the radiation regimen. During the radiation regimen and for 2 weeks following the end of the regimen, mice were tested twice per week on two different, non-consecutive days. Mice receiving mock treatment and 1 subgroup of mice receiving tail radiation were injected with saline (ip) 15 minutes prior to testing. […]

Experiment [1] relates to tail-irradiated C57BL/6 mice. As to the kind of experiment: Straub Tail scoring in tail-irradiated mice. It counts as in vivo. As to conditions: 10 mg/kg ip after the 17th tail irradiation (5 Gy/day); rescored 20 minutes after injection. How it is done: To obtain the data shown in FIG. 3C, after the 17th irradiation dose, the mice were measured for Straub Tail scores and the irradiated mice were divided into two subgroups. The first subgroup was injected with 10 mg/kg naloxone ip. The second subgroup was injected with saline ip. Straub Tail scores were then rescored 20 minutes after the injection. FIG. 3C uses data obtained by Wild type female mice. […] The saline injection has no effect on the Straub Tail phenotype.
Mice undergoing tail radiation or mock treatment were assessed for Straub Tail according to a slightly modified method of Zarrindast, M. R., Ghadimi, M., Ramezani-Tehrani, B., and Sahebgharani, M. Effect of GABA Receptor Agonists or Antagonists on Morphine-induced Straub Tail in Mice. […] 2006; 116(8): 963-73, by which Straub tail is scored on a scale of 0-2 according to the angle of elevation of the tail from the horizontal plane (0=tail relaxed and no elevation; 1=tail is rigid and slightly elevation 1-10° from horizontal; 1.5=11-45 degree elevation with rigidity at the base of the tail; 2=46-90° elevation with rigidity at the base of the tail). For each measurement, each mouse is scored every 10 seconds for 1 minute, and the final score for each mouse at a given measurement point is the average of these 7 values. […] After the 17th irradiation, all mice were scored as described above immediately following tail radiation. […]

On to `C=CCN1CC[C@]23c4c5ccc(O)c4O[C@H]2C(=O)CC[C@@]3(O)[C@H]1C5` [naloxone], for which the “sensitivity to mechanical and thermal stimuli” value in the experiment with C57BL/6 male mice (mock-exposed mice, 10 mg/kg, compared to mock-exposed, saline-treated mice) is “increased sensitivity to mechanical and thermal stimuli”; in the experiment on C57BL/6 male mice (tail-irradiated mice, 10 mg/kg 15 minutes before testing, as the radiation regimen progressed) it was “increased sensitivity to both mechanical and thermal stimuli”. Besides, the “effect on radiation-induced changes in mechanical and thermal analgesic thresholds” value in the experiment on C57BL/6 male mice (tail-irradiated mice 5 Gy/day for 6 weeks, 10 mg/kg 15 minutes before testing, 10 mg/kg) is “prevented; also recorded: prevents changes in analgesic thresholds”. Besides, the “other withdrawal phenotypes (jumping, wet-dog shaking, teeth chattering, diarrhea)” value in the experiment on C57BL/6 male mice (tail-irradiated mice, upon naloxone injection, 10 mg/kg) is recorded as “not observed acutely”. Besides, the “effect on Straub Tail score” value in experiment [1] is “abolished to near mock-treated levels; also recorded: reversed the Straub Tail, similar to mock-treated levels”.
